This data set can be described thus: Human HepG2 cell viability assay in 384 well format. Set-up: dose 125 nL, time 70.5 hour; concentration not given beside the values. Conditions: HepG2 cells, read-out: Inhibition. In kind it is toxicity, cell-based.

We go through 70 molecules from ChEMBL document CHEMBL3507680, “University of Dundee, Gates Library screen for HepG2 cell viability”.

In the case of `COc1ccc(CC(C)Nc2cccc(SC)c2)cc1` (stereo not given), the cytotoxicity at 70.5 h is -5.87%. The value for `CC(=O)N[C@@H]1CN(c2nc(CO)cs2)C[C@H]1c1ccc(C)o1` was -12.8%; that for `CC(C)=CCN1C[C@H]2CC[C@@H]1CN(C(=O)CSc1ccncc1)C2` was -0.143%; that for `c1ccc(C2CCN(c3ncnc4c3CCNC4)CC2)cc1` was -4.79%. The result for `Cc1cc(C(F)(F)F)cc(N2CCN(Cc3ccccc3)CC(O)C2)n1` (stereo not given) reads 3.5%; that for `CC(C)(C)c1oc(C(N)=O)cc1CN1CCCCC1CN1CCOCC1` (stereo not given), 39.9%. The result for `COc1ccccc1[C@@H]1CN(Cc2c(C)noc2C)C[C@H]1C(=O)O` reads -8.62%. As for `COCCC1(C(=O)O)CCCN(C(=O)c2cc(Cl)ccc2F)C1` (stereo not given), the cytotoxicity at 70.5 h was -5.3%.

As for `CC(C)S(=O)(=O)N1CCCC(c2nnc(Cn3ccnc3)n2C)C1` (stereo not given), the cytotoxicity at 70.5 h was -7.74%.

In the case of `CN(C)CC1(O)CCCN(C(=O)CCn2cc(Cl)cn2)C1` (stereo not given), the cytotoxicity at 70.5 h came to 26.8%. The result for `CC(c1cccs1)N(C)Cc1cnc(-c2ccccn2)nc1` (stereo not given) reads 3.52%; that for `CCCc1nc(CN(CC)C(=O)c2ccc(S(C)(=O)=O)cc2)no1`, -8.4%. `Cc1nc(CCN(C)C(=O)CN2C(=O)OC[C@@H]2c2ccccc2)no1`: the cytotoxicity at 70.5 h was -4.02%. As to `Fc1ccc(-n2cccn2)c(CN2CCCCC2CCn2ccnc2)c1` (stereo not given), the cytotoxicity at 70.5 h came to 1.83%. For `COc1nccnc1N1C[C@@H]2CC[C@H](C1)N(CC=C(C)C)C2=O`, the cytotoxicity at 70.5 h was -20.8%.

In the case of `CCC(C(=O)NC1(C(N)=O)CCCC1)n1cccn1` (stereo not given), the cytotoxicity at 70.5 h is -13.8%. The result for `CCN(Cc1cnc(-c2ccccn2)nc1)C1CCS(=O)(=O)C1` (stereo not given) reads 5%; that for `COCCNCC1(O)CCCN(Cc2ccc(F)c(F)c2)C1=O` (stereo not given), -2.23%; that for `Cn1ccnc1-c1ccc(NCC2COc3ccccc3O2)nn1` (stereo not given), 1.13%. The result for `COC[C@]1(O)CCN(C2CCN(c3ccc(Cl)cc3)CC2)CC1(C)C` reads 22.5%; that for `CCN1CC(c2ccccc2)CC2(CCN(Cc3ncc[nH]3)CC2)C1` (stereo not given), -9.77%; that for `CC(=O)N1CCN(Cc2c(C)ccc3ccccc23)CC(O)C1` (stereo not given), -6.49%. Consider `CCOc1ccccc1C(C(=O)O)N(C)Cc1nnc(C)o1` (stereo not given), for which the cytotoxicity at 70.5 h is -2.69%. Take `Cc1cnc(N2CCCC(c3ccccc3)C2)nc1-c1ncnn1C` (stereo not given): the cytotoxicity at 70.5 h is -9.97%.

Turning to `O=C(CCN1CCOC(C(F)(F)F)C1)NCc1ccc(Cl)cc1` (stereo not given), the cytotoxicity at 70.5 h was -0.312%.

In the case of `COc1nc(C)c(C(=O)N2CCC(C(O)Cc3ccccc3)CC2)s1` (stereo not given), the cytotoxicity at 70.5 h was -11.5%. As to `N#Cc1ccccc1C(=O)N1C[C@@H](CN2CCCCC2)[C@@H](CO)C1`, the cytotoxicity at 70.5 h is -5.21%.

In the case of `CC(=O)NCCNC(=O)c1cnc2c(c1)nc(-c1ccccc1Cl)n2C`, the cytotoxicity at 70.5 h was -6%. The result for `Cc1c[nH]c(CN2CCN(C)C3(CCC(=O)N(CC4CC4)CC3)C2)n1` (stereo not given) reads 19.9%; that for `Cc1ccc(OC2(C(=O)NC(C)Cc3ccncc3)CCNCC2)cc1` (stereo not given), -6.8%.

As to `CN(CCc1ccccn1)C(=O)CCC1CCCN(S(C)(=O)=O)C1` (stereo not given), the cytotoxicity at 70.5 h stood at 3.47%. Regarding `Cc1nc(O)cc(C2CCN(C(=O)c3[nH]nc4c3CC(C)CC4)CC2)n1` (stereo not given), the cytotoxicity at 70.5 h is -11%. The value for `COC(=O)CNc1ccc(-c2nc(Cc3ccc(OC)cc3)no2)cn1` was -10.8%; that for `COC(=O)c1cc(CN2CCN(c3ncccc3C)CC2)ccc1O` was 39.9%; that for `Cc1cccc(-n2nc(CC(C)C)nc2CCC(=O)N(C)C)c1` was 0.846%.

On to `CC(C)n1ccnc1C1CCCN(Cc2ccc(F)c(F)c2)C1` (stereo not given), for which the cytotoxicity at 70.5 h amounted to 38%. Take `CCc1nccn1CCCNC(=O)c1cnn(-c2ccccc2OC)c1`: the cytotoxicity at 70.5 h was -5.05%. For `O=C1CCC2(CCOC2)CN1CCCOc1cccnc1` (stereo not given), the cytotoxicity at 70.5 h came to 0.321%. For `CCNC(=O)C1CCN(c2cc(-c3ccccc3)nc3ccnn23)C1` (stereo not given), the cytotoxicity at 70.5 h was -0.497%. Take `CSc1nccc(NCC2CNCCOC2)n1` (stereo not given): the cytotoxicity at 70.5 h was -11.3%.

Regarding `CSCCC(=O)N1CCC(c2nccn2Cc2cscn2)CC1`, the cytotoxicity at 70.5 h is -5.4%. The value for `CCN1CCN(C2(C(=O)NC3CCCC3)Cc3ccccc3C2)CC1` was -3.96%. The result for `CC(C)c1cc(C(=O)N2CCN(CC3CC3)[C@@H]3CS(=O)(=O)C[C@@H]32)no1` reads -3.21%. The result for `O=C(c1cc(Cn2ccc3ccccc32)[nH]n1)N1CCCCC1CO` (stereo not given) reads 10.4%; that for `CC(C)N1CCOC(CC(=O)N2CCCN(c3ccc(F)cc3)CC2)C1` (stereo not given), -3.4%. For the molecule `Cc1cc(C(=O)N2CCC(c3nnc(Cn4ccnc4)n3C)CC2)cs1`, the cytotoxicity at 70.5 h was -9.51%.

As to `CN1C(=O)C2(CCN(c3ncccc3C(=O)O)CC2)c2ccccc21`, the cytotoxicity at 70.5 h was -8.18%.

`Cc1cccnc1CN1CCN(C(=O)c2cnn(C(C)C)c2)CC1`: the cytotoxicity at 70.5 h was 15.6%. The value for `CCc1cnc(N)nc1NC(C)c1ccc(C)c(C)c1` (stereo not given) was -0.902%. The result for `CN(C)C(=O)CN1C[C@@H]2CC[C@H](C1)N(Cc1c(Cl)cncc1Cl)C2` reads -9.62%.

With `CC(=O)c1ccc(N2CCCC(CO)(Cc3ccccc3C)C2)nc1` (stereo not given), the cytotoxicity at 70.5 h was -3.1%. The result for `CCC(C)Nc1ccc(-c2nc(-c3cccc(OC)c3OC)no2)cn1` (stereo not given) reads 13.1%.

Consider `CC(O)CN1CCc2onc(-c3ccccc3F)c2C1` (stereo not given), for which the cytotoxicity at 70.5 h is -22.3%. The result for `CS(=O)(=O)CCc1ncnn1-c1ccc(F)c(Cl)c1` reads -2.51%; that for `Cc1ccc(CN2CCNC(=O)C2CC(=O)N2CCSCC2)o1` (stereo not given), 2.5%. `Cn1c(-c2ccc(F)cc2)cn2cc(C(=O)N3CC[C@@H](O)C3)nc2c1=O`: the cytotoxicity at 70.5 h was -10.1%. For the molecule `NCc1cn(CC2CCCN(C(=O)NCc3ccc(Cl)cc3)C2)nn1` (stereo not given), the cytotoxicity at 70.5 h came to 2.71%. `CN(C)CCCn1ccc(-c2cccc(-c3ccccn3)c2)n1`: the cytotoxicity at 70.5 h was found to be 15.8%.

As to `CC[C@@H](CO)NC(=O)c1coc(COc2ccc3sc(C)nc3c2)n1`, the cytotoxicity at 70.5 h was -12.1%. The result for `COc1cc(NC2CCS(=O)(=O)CC2)ncn1` reads -16.4%; that for `Nc1cc(C(=O)NCC2CCN(Cc3ccncc3F)C2)ccn1` (stereo not given), 20.9%; that for `COCCC1(C(=O)O)CCCN(C(=O)c2cnc3c(c2)CCCC3)C1` (stereo not given), -14.8%. The value for `CCn1nc(C)c(CN(CCOC)Cc2ccccn2)c1C` was -6.94%; that for `NC(=O)C1CCN(CC(=O)N(Cc2ccccc2)Cc2nccs2)CC1` was -7.45%; that for `Cc1noc(CN(C)c2nc(-c3ccco3)nc3c2CCN(C)CC3)n1` was -12.8%. Regarding `CSc1ncccc1C(=O)N(C)C(C)Cc1ccccn1` (stereo not given), the cytotoxicity at 70.5 h is -18.1%. The value for `O=C(NCCSc1ccccc1)[C@H]1CNC[C@H](C(=O)N2CCOCC2)C1` was -6.2%; that for `Cc1nccnc1N1CCC(Cc2ccccc2Cl)(C(=O)O)CC1` was -11.4%; that for `O=C(c1ccc2ncsc2c1)N1CCC(C(=O)O)(n2cccn2)CC1` was -8.58%. Regarding `CC(C)c1noc(CCNC(=O)C2COc3ccccc3C2)n1` (stereo not given), the cytotoxicity at 70.5 h came to 13.6%.
